These results are taken from ChEMBL document CHEMBL4477232, “Synthesis and evaluation of novel 1,2,3-triazole-based acetylcholinesterase inhibitors with neuroprotective activity” (Bioorg Med Chem Lett, 2016).

One data set deals with Acetylcholinesterase (Electrophorus electricus, UniProt O42275). The data set is described as follows: Inhibition of electric eel AChE preincubated for 6 mins followed by addition of acetylthiocholine iodide by Ellman's method.
The nature of data set [1]: Selectivity ratio of IC50 for equine serum BuChE to IC50 for electric eel AChE.
A further data set concerns the target Cholinesterase (Equus caballus, UniProt P81908). The experiment in a line: Inhibition of equine serum BuChE preincubated for 6 mins followed by addition of S-butyrylthiocholine iodide by Ellman's method.
Data set [2] has as its system SH-SY5Y. The experiment in a line: Neuroprotective activity against amyloid beta (25 to 35 residues)-induced cell damage in human SH-SY5Y cells assessed as cell viability at 10 uM preincubated for 2 hrs followed by amyloid beta (25 to 35 residues) addition measured after 24 hrs by MTT assay (reference value: 62.3 %). It counts as functional. Conditions: for viability at 10 µM: read-out: Activity. On the technique in general: Formazan colour is commonly taken as a measure of viable cells.

In data set [3] the test system is SH-SY5Y. The data set is described as follows: Neuroprotective activity against amyloid beta (25 to 35 residues)-induced cell damage in human SH-SY5Y cells assessed as cell viability at 1 uM preincubated for 2 hrs followed by amyloid beta (25 to 35 residues) addition measured after 24 hrs by MTT assay (reference value: 62.3 %). It counts as functional. Conditions: for viability at 1 µM: read-out: Activity.

Data set [4] has as its system SH-SY5Y. The data set is described as follows: Neuroprotective activity against amyloid beta (25 to 35 residues)-induced cell damage in human SH-SY5Y cells assessed as recovery of cell viability at 10 uM preincubated for 2 hrs followed by amyloid beta (25 to 35 residues) addition measured after 24 hrs by MTT assay. It counts as functional.
A further data set deals with NIH3T3. The data set is described as follows: Cytotoxicity against mouse NIH/3T3 assessed as cell viability upto 400 uM after 24 hrs by MTT assay relative to control. It counts as cell-based. Conditions: nih3t3, 24 h.
Data set [5] has as its system SH-SY5Y. The data set is described as follows: Neuroprotective activity against amyloid beta (25 to 35 residues)-induced cell damage in human SH-SY5Y cells assessed as recovery of cell viability at 1 uM preincubated for 2 hrs followed by amyloid beta (25 to 35 residues) addition measured after 24 hrs by MTT assay. It counts as functional.
For another data set, the system named is HaCaT. The experiment in a line: Cytotoxicity against human HaCaT assessed as cell viability upto 400 uM after 24 hrs by MTT assay relative to control. It counts as cell-based.

Calls of active or inactive are those of the source. The rule behind the calls is not given here.

Acetylcholinesterase, sequence (O42275 whole entry): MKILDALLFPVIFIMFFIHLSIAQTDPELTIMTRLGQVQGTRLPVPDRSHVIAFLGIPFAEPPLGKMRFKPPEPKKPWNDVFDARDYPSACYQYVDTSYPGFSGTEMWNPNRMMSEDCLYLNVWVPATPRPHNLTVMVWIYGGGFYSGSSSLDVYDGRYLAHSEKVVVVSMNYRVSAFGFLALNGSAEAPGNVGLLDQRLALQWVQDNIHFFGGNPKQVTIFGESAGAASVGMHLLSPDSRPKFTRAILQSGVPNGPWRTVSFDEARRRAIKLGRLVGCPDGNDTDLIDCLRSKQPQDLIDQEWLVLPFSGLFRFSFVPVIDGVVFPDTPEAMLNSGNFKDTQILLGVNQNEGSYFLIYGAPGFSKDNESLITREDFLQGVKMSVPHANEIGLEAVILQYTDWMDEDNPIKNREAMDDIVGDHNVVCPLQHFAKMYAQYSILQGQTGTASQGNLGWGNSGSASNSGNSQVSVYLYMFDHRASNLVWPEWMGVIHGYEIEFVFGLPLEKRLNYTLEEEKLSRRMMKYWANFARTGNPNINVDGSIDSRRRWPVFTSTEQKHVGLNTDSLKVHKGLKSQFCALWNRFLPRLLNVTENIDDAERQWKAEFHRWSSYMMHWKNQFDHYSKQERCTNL
Cholinesterase, sequence (P81908 whole entry, the tested form may be a part): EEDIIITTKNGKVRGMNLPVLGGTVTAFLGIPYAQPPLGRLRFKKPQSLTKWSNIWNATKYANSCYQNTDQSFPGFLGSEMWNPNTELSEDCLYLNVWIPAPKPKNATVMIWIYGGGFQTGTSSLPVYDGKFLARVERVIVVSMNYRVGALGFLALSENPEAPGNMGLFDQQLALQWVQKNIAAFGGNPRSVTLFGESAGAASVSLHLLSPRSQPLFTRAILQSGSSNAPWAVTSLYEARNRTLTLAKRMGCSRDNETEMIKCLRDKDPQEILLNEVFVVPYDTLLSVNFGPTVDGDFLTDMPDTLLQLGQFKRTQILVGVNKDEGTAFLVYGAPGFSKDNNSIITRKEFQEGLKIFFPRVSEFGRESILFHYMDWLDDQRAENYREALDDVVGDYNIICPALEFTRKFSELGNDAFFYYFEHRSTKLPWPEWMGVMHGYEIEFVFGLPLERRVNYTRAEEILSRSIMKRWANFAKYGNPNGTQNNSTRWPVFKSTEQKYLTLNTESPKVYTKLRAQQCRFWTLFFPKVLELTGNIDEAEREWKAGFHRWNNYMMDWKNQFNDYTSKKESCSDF

The IC50 is the midpoint of a concentration-inhibition curve. Consider `Cc1ccc(-c2cn(Cc3cccc(Cl)c3)nn2)cc1C(=O)NCCN1CCOCC1`, for which the IC50 on Acetylcholinesterase was 32.6 µM; at Cholinesterase it was 36.3 µM. Besides, in data set [1], the Ratio IC50 was 1.1.

Take `Cc1cc(F)ccc1Cn1cc(-c2ccc(C)c(C(=O)NCCN3CCOCC3)c2)nn1`: the IC50 on Acetylcholinesterase amounted to 37.6 µM; on Cholinesterase, 61 µM. In data set [1], the Ratio IC50 was determined as 1.6.

Consider `Cc1ccc(-c2cn(Cc3ccc(F)cc3F)nn2)cc1C(=O)NCCN1CCOCC1`, for which the IC50 at Acetylcholinesterase was found to be 24.4 µM; at Cholinesterase, 89.6 µM. Moreover, the Ratio IC50 in [1] stood at 3.7.

In the case of `Cc1ccc(-c2cn(Cc3ccc(S(N)(=O)=O)cc3)nn2)cc1C(=O)NCCN1CCOCC1`, the IC50 against Acetylcholinesterase stood at 30.3 µM; against Cholinesterase, 45.5 µM. Besides, the Ratio IC50 in data set [1] was determined as 1.5.

Consider `Cc1ccc(-c2cn(Cc3ccc(F)c(F)c3)nn2)cc1C(=O)NCCN1CCOCC1`, for which the viability at 10 µM with SH-SY5Y [2] turned out to be 89.4%. Also, the IC50 came out at 15.4 µM against Acetylcholinesterase and 95.4 µM on Cholinesterase. In addition, the Ratio IC50 in data set [1] was found to be 6.2. The viability at 1 µM in the data set on SH-SY5Y [3] turned out to be 70.3%. For the same compound, the Activity in the data set on SH-SY5Y [4] is 27.1%; in the data set with NIH3T3, “Non-Toxic”; with SH-SY5Y [5] it was 8%; in the data set on HaCaT it was “Non-Toxic”.

As for `COC(=O)c1ccc(Cn2cc(-c3ccc(C)c(C(=O)NCCN4CCOCC4)c3)nn2)cc1`, the IC50 came to 38.4 µM against Acetylcholinesterase and 67.8 µM at Cholinesterase. Besides, in data set [1], the Ratio IC50 amounted to 1.8.

For `Cc1ccc(-c2cn(Cc3ccc(Br)cc3)nn2)cc1C(=O)NCCN1CCOCC1`, the results for the IC50 on Acetylcholinesterase and against Cholinesterase were 20.5 µM and 45.6 µM, respectively. In data set [1], the Ratio IC50 was 2.2.

As to `O=C(O[C@@H]1Cc2c(O)cc(O)cc2O[C@@H]1c1cc(O)c(O)c(O)c1)c1cc(O)c(O)c(O)c1` [EPIGALOCATECHIN GALLATE], in the data set on SH-SY5Y [2], the viability at 10 µM was determined as 95.7%. The Activity with SH-SY5Y [4] was 33.4%.

As for `Cc1ccc(-c2cn(Cc3cccc4ccccc34)nn2)cc1C(=O)NCCN1CCOCC1`, the figures for the IC50 on Acetylcholinesterase and at Cholinesterase were 46.2 µM and 72.9 µM, respectively. Besides, in data set [1], the Ratio IC50 was 1.58.

`Cc1ccc(-c2cn(Cc3ccc(C(F)(F)F)cc3)nn2)cc1C(=O)NCCN1CCOCC1`: the viability at 10 µM in the data set with SH-SY5Y [2] turned out to be 85.2%. Half-maximal inhibition against Acetylcholinesterase (IC50) was put at 27.4 µM. Moreover, the result with SH-SY5Y [3] and in the data set with SH-SY5Y [5] was inactive. Moreover, in the data set with SH-SY5Y [4], the Activity worked out at 22.9%.

Regarding `Cc1ccc(-c2cn(Cc3ccc(F)c([N+](=O)[O-])c3)nn2)cc1C(=O)NCCN1CCOCC1`, the IC50 came to 30.1 µM against Acetylcholinesterase and 34.8 µM against Cholinesterase. In data set [1], the Ratio IC50 turned out to be 1.2.

As for `Cc1ccc(-c2cn(Cc3cccc(F)c3)nn2)cc1C(=O)NCCN1CCOCC1`, the IC50 at Acetylcholinesterase is 30.1 µM; on Cholinesterase, 60.8 µM. Also, in [1], the Ratio IC50 came out at 1.2.

Regarding `Cc1ccc(-c2cn(Cc3ccccc3Cl)nn2)cc1C(=O)NCCN1CCOCC1`, the 50% inhibitory concentration (IC50) against Acetylcholinesterase was found to be 31.3 µM; against Cholinesterase it was 34.5 µM. Besides, the Ratio IC50 in [1] stood at 1.1.

For `Cc1ccc(-c2cn(Cc3ccccc3C(F)(F)F)nn2)cc1C(=O)NCCN1CCOCC1`, the values for the IC50 against Acetylcholinesterase and against Cholinesterase were 34.1 µM and 45.1 µM, respectively. Moreover, the Ratio IC50 in data set [1] came to 1.3.

Turning to `Cc1ccc(-c2cn(Cc3ccc4ccccc4c3)nn2)cc1C(=O)NCCN1CCOCC1`, the viability at 10 µM in the data set with SH-SY5Y [2] amounted to 96.5%. The figures for the IC50 against Acetylcholinesterase and on Cholinesterase were 7.23 µM and 90.8 µM, respectively. The Ratio IC50 in data set [1] worked out at 12.6. In the data set with SH-SY5Y [3], the viability at 1 µM was found to be 77.9%. For the same compound, the Activity is 34.2% in the data set with SH-SY5Y [4], “Non-Toxic” with NIH3T3, 15.6% with SH-SY5Y [5] and “Non-Toxic” in the data set on HaCaT.

Regarding `Cc1ccc(-c2cn(Cc3ccc(F)cc3Cl)nn2)cc1C(=O)NCCN1CCOCC1`, the result in the data set on SH-SY5Y [2] and in the data set on SH-SY5Y [4] was inactive. Besides, the IC50 came out at 10.4 µM at Acetylcholinesterase and 68.9 µM against Cholinesterase. Further, the Ratio IC50 in data set [1] came out at 6.6.

Consider `Cc1ccc(Cn2cc(-c3ccc(C)c(C(=O)NCCN4CCOCC4)c3)nn2)cc1`, for which the IC50 on Acetylcholinesterase stood at 60.1 µM; on Cholinesterase, 83.1 µM. Also, the Ratio IC50 in data set [1] was 1.4.

Consider `Cc1ccc(-c2cn(Cc3ccc(F)cc3)nn2)cc1C(=O)NCCN1CCOCC1`, for which the IC50 on Acetylcholinesterase came out at 21.2 µM; at Cholinesterase, 43.7 µM. The Ratio IC50 in data set [1] is 2.1.

In the case of `C#Cc1ccc(C)c(C(=O)NCCN2CCOCC2)c1`, the IC50 on Acetylcholinesterase was above 100 µM.

`Cc1ccc(-c2cn(Cc3ccccc3Br)nn2)cc1C(=O)NCCN1CCOCC1`: the IC50 was determined as 35.2 µM on Acetylcholinesterase and 78.6 µM against Cholinesterase. The Ratio IC50 in data set [1] came to 2.2.

In the case of `Cc1ccc(-c2cn(Cc3ccccc3F)nn2)cc1C(=O)NCCN1CCOCC1`, the IC50 came to 39.3 µM at Acetylcholinesterase and 47.2 µM on Cholinesterase. In addition, in data set [1], the Ratio IC50 was 2.

With `Cc1ccc(-c2cn(Cc3cccc(Br)c3)nn2)cc1C(=O)NCCN1CCOCC1`, the IC50 on Acetylcholinesterase stood at 28.4 µM; against Cholinesterase, 40.3 µM. In addition, the Ratio IC50 in [1] is 2.

In the case of `Cc1ccc(-c2cn(C)nn2)cc1C(=O)NCCN1CCOCC1`, the values for the IC50 on Acetylcholinesterase and on Cholinesterase were 45.2 µM and 68.1 µM, respectively. For the same compound, the Ratio IC50 in [1] is 1.5.

For `COc1ccc(Br)c(Cn2cc(-c3ccc(C)c(C(=O)NCCN4CCOCC4)c3)nn2)c1`, the IC50 on Acetylcholinesterase was 40.8 µM; at Cholinesterase it was 50.8 µM. The Ratio IC50 in data set [1] worked out at 1.2.

Regarding `Cc1ccc(-c2cn(Cc3ccc(F)cc3Br)nn2)cc1C(=O)NCCN1CCOCC1`, the IC50 at Acetylcholinesterase is 31.4 µM; at Cholinesterase, 70.8 µM. Also, the Ratio IC50 in data set [1] was 2.3.

Regarding `COC(=O)/C=C/c1ccc(Cn2cc(-c3ccc(C)c(C(=O)NCCN4CCOCC4)c3)nn2)cc1`, the IC50 against Acetylcholinesterase came to 44.7 µM; at Cholinesterase, 90.9 µM. Besides, the Ratio IC50 in [1] is 2.

For `Cc1ccc(-c2cn(Cc3ccc([N+](=O)[O-])cc3)nn2)cc1C(=O)NCCN1CCOCC1`, the IC50 stood at 20.4 µM on Acetylcholinesterase and 60.5 µM at Cholinesterase. Further, in data set [1], the Ratio IC50 was determined as 2.9.

As for `Cc1ccc(-c2cn(Cc3ccc(OC(F)(F)F)cc3)nn2)cc1C(=O)NCCN1CCOCC1`, the values for the IC50 against Acetylcholinesterase and at Cholinesterase were 30.2 µM and 60.2 µM, respectively. In addition, in data set [1], the Ratio IC50 is 2.

For `Cc1cc(C)cc(Cn2cc(-c3ccc(C)c(C(=O)NCCN4CCOCC4)c3)nn2)c1`, the IC50 on Acetylcholinesterase is 64.2 µM; against Cholinesterase, 56.2 µM. In addition, the Ratio IC50 in [1] was found to be 0.9.

For the compound `Cc1ccc(-c2cn(Cc3ccc(C#N)cc3)nn2)cc1C(=O)NCCN1CCOCC1`, the viability at 10 µM in the data set on SH-SY5Y [2] amounted to 78.9%. In addition, the IC50 is 12.1 µM against Acetylcholinesterase and 92.8 µM against Cholinesterase. The Ratio IC50 in data set [1] turned out to be 7.6. The outcome in the data set with SH-SY5Y [3] and in the data set with SH-SY5Y [5] was inactive. Also, the Activity is 16.6% in the data set on SH-SY5Y [4], “Non-Toxic” in the data set on NIH3T3 and “Non-Toxic” in the data set with HaCaT.
